{
  "source": "patent US9637469B2",
  "about": "“Pyridine derivative” (Teijin Pharma Limited, priority 2012, dated 2017)",
  "key": {"[1]": {"biological_target": "T1, human URAT1 (Homo sapiens, UniProt Q96S37)", "T1 construct": "Full-length cDNA of human URAT1 (hURAT1)", "T1 sequence (Q96S37 1-553)": "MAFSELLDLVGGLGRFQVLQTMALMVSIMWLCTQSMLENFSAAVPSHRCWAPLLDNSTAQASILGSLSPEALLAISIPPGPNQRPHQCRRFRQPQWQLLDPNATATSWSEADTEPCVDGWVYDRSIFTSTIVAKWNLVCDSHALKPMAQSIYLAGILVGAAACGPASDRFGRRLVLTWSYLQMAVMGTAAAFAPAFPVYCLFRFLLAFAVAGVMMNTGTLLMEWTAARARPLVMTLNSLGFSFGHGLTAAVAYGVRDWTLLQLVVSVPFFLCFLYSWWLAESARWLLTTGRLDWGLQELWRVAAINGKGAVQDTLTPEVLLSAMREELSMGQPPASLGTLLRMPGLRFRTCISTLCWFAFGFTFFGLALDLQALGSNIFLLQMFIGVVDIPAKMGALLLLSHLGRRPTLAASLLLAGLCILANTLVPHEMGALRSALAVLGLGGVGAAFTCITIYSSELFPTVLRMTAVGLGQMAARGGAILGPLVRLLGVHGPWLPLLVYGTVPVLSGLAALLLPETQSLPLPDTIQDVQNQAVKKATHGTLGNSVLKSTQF", "test": "Test for inhibition of uric acid transport using human URAT1-expressing cells;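 also: three stars up to 0.2 µM two stars 0.2-2 µM one star 2-20 µM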", "assay_type": "cell-based", "settings": "HEK 293 cells expressing human URAT1; 14C-labeled uric acid 25 μM; uptake 37° C. for 5 min", "in_short": "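HEK293 cells stably transfected with full-length hURAT1, preincubated 10 min at 37 °C in HBSS with NaCl replaced by Na gluconate. Uptake of 25 μM ¹⁴C-uric acid with compound ran 5 min at 37 °C, then scintillation counting. IC50 derived from % of DMSO-control URAT1-specific uptake.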"}, "[2]": {"tested_on": "Cebus apella", "test": "Test for drug efficacy in Cebus apella (uric acid excretion rate)", "assay_type": "in vivo", "settings": "3 mg/kg to 30 mg/kg in 0.5% methylcellulose into stomach via the nasal cavity, up to 24 hours", "protocol": "A test compound (3 mg/kg to 30 mg/kg) prepared by suspending in a 0.5% methylcellulose solution was administered to Cebus apella into stomach via the nasal cavity using a disposable catheter and a syringe barrel. Blood samples were taken before administration and 30 minutes, 1 hour, 2 hours, 4 hours, 8 hours, 12 hours, and 24 hours after administration; and urine samples were collected for the time intervals of immediately to 4 hours after administration, from 4 hours to 8 hours after administration, from 8 hours to 16 hours after administration, and from 16 hours to 24 hours after administration. Concentrations of uric acid and creatinine in the blood and urine samples collected were measured by an automatic analyzer (JEOL Ltd.). Uric acid and creatine were measured using L-type Wako UA.F (Wako Pure Chemicals Industries, Ltd.) and L-type Creatine F (Wako Pure Chemicals Industries, Ltd.) respectively. Uric acid clearance was calculated from the uric acid concentrations in blood and urine and, similarly, creatinine clearance was calculated from the creatinine concentrations."}},
  "data": [
    {"smiles": "Cc1nc(-c2cncc(F)c2)n(Cc2cccc3ccccc23)c1C(=O)O", "note": "[Compound A119, 2-(5-fluoropyridin-3-yl)-4-methyl-1-(naphthalen-1-ylmethyl)-1H-imidazole-5-carboxylic acid]", "values": [
      {"measurement": "Inhibitory Activity (IC50 of uric acid transport inhibition)", "setting": "[1]", "value": "* *"},
      {"measurement": "uricosuric effect (uric acid excretion rate)", "setting": "[2]", "value": "excellent uricosuric effect was confirmed"}
    ]},
    {"smiles": "CC(C)c1nc(-c2cccnc2)n(Cc2cc(Cl)ccc2Cl)c1C(=O)O", "note": "[Compound A26, 1-(2,5-dichlorobenzyl)-4-isopropyl-2-(pyridin-3-yl)-1H-imidazole-5-carboxylic acid]", "values": [
      {"measurement": "Inhibitory Activity (IC50 of uric acid transport inhibition)", "setting": "[1]", "value": "* * *"},
      {"measurement": "uricosuric effect (uric acid excretion rate)", "setting": "[2]", "value": "excellent uricosuric effect was confirmed"}
    ]},
    {"smiles": "Cc1nc(-c2cccnc2)n(Cc2cccc3ccccc23)c1C(=O)O", "note": "[Compound A2, 4-methyl-1-(naphthalen-1-ylmethyl)-2-(pyridin-3-yl)-1H-imidazole-5-carboxylic acid]", "values": [
      {"measurement": "Inhibitory Activity (IC50 of uric acid transport inhibition)", "setting": "[1]", "value": "* *"},
      {"measurement": "uricosuric effect (uric acid excretion rate)", "setting": "[2]", "value": "excellent uricosuric effect was confirmed"}
    ]},
    {"smiles": "O=C(O)c1c(C(F)(F)F)nc(-c2cncc(Cl)c2)n1Cc1cc(Cl)ccc1Cl", "note": "[Compound A137, 2-(5-chloropyridin-3-yl)-1-(2,5-dichlorobenzyl)-4-(trifluoromethyl)-1H-imidazole-5-carboxylic acid]", "values": [
      {"measurement": "Inhibitory Activity (IC50 of uric acid transport inhibition)", "setting": "[1]", "value": "* * *"},
      {"measurement": "uricosuric effect (uric acid excretion rate)", "setting": "[2]", "value": "excellent uricosuric effect was confirmed"}
    ]},
    {"smiles": "Cc1nc(-c2cccnc2)n(Cc2cc(Cl)ccc2Cl)c1C(=O)O", "note": "[Compound A13, 1-(2,5-dichlorobenzyl)-2-(pyridin-3-yl)-4-methyl-1H-imidazole-5-carboxylic acid]", "values": [
      {"measurement": "Inhibitory Activity (IC50 of uric acid transport inhibition)", "setting": "[1]", "value": "* * *"},
      {"measurement": "uricosuric effect (uric acid excretion rate)", "setting": "[2]", "value": "excellent uricosuric effect was confirmed"}
    ]},
    {"smiles": "O=C(O)c1cnc(-c2cncc(Cl)c2)n1Cc1cc(Cl)ccc1Cl", "note": "[Compound A169, 2-(5-chloropyridin-3-yl)-1-(2,5-dichlorobenzyl)-1H-imidazole-5-carboxylic acid]", "values": [
      {"measurement": "Inhibitory Activity (IC50 of uric acid transport inhibition)", "setting": "[1]", "value": "* * *"},
      {"measurement": "uricosuric effect (uric acid excretion rate)", "setting": "[2]", "value": "excellent uricosuric effect was confirmed"}
    ]},
    {"smiles": "Cc1nc(-c2cncc(Cl)c2)n(Cc2cc(Cl)ccc2Cl)c1C(=O)O", "note": "[Compound A135, 2-(5-chloropyridin-3-yl)-1-(2,5-dichlorobenzyl)-4-methyl-1H-imidazole-5-carboxylic acid]", "values": [
      {"measurement": "Inhibitory Activity (IC50 of uric acid transport inhibition)", "setting": "[1]", "value": "* * *"},
      {"measurement": "uricosuric effect (uric acid excretion rate)", "setting": "[2]", "value": "excellent uricosuric effect was confirmed"}
    ]},
    {"smiles": "CCc1nc(-c2cccnc2)n(Cc2cc(Cl)ccc2Cl)c1C(=O)O", "note": "[Compound A14, 1-(2,5-dichlorobenzyl)-4-ethyl-2-(pyridin-3-yl)-1H-imidazole-5-carboxylic acid]", "values": [
      {"measurement": "Inhibitory Activity (IC50 of uric acid transport inhibition)", "setting": "[1]", "value": "* * *"},
      {"measurement": "uricosuric effect (uric acid excretion rate)", "setting": "[2]", "value": "excellent uricosuric effect was confirmed"}
    ]},
    {"smiles": "Cc1nc(-c2cccnc2)n(Cc2cccc3ccsc23)c1C(=O)O", "note": "[Compound A81, 1-(benzo[b]thiophen-7-ylmethyl)-4-methyl-2-(pyridin-3-yl)-1H-imidazole-5-carboxylic acid]", "values": [
      {"measurement": "Inhibitory Activity (IC50 of uric acid transport inhibition)", "setting": "[1]", "value": "* *"},
      {"measurement": "uricosuric effect (uric acid excretion rate)", "setting": "[2]", "value": "excellent uricosuric effect was confirmed"}
    ]},
    {"smiles": "Cc1nc(-c2cncc(Cl)c2)n(Cc2cccc3ccccc23)c1C(=O)O", "note": "[Compound A121, 2-(5-chloropyridin-3-yl)-4-methyl-1-(naphthalen-1-ylmethyl)-1H-imidazole-5-carboxylic acid]", "values": [
      {"measurement": "Inhibitory Activity (IC50 of uric acid transport inhibition)", "setting": "[1]", "value": "* *"},
      {"measurement": "uricosuric effect (uric acid excretion rate)", "setting": "[2]", "value": "excellent uricosuric effect was confirmed"}
    ]},
    {"smiles": "Cc1nc(-c2cncc(F)c2)n(Cc2cc(Cl)ccc2Cl)c1C(=O)O", "note": "[Compound A134, 1-(2,5-dichlorobenzyl)-2-(5-fluoropyridin-3-yl)-4-methyl-1H-imidazole-5-carboxylic acid]", "values": [
      {"measurement": "Inhibitory Activity (IC50 of uric acid transport inhibition)", "setting": "[1]", "value": "* * *"},
      {"measurement": "uricosuric effect (uric acid excretion rate)", "setting": "[2]", "value": "excellent uricosuric effect was confirmed"}
    ]},
    {"smiles": "O=C(O)c1ccc(-c2cccnc2)n1Cc1cccc2ccccc12", "note": "[Compound B1, 1-(naphthalen-1-ylmethyl)-2-(pyridin-3-yl)-1H-pyrrole-5-carboxylic acid]", "values": [
      {"measurement": "Inhibitory Activity (IC50 of uric acid transport inhibition)", "setting": "[1]", "value": "* * *"},
      {"measurement": "uricosuric effect (uric acid excretion rate)", "setting": "[2]", "value": "excellent uricosuric effect was confirmed"}
    ]},
    {"smiles": "O=C(O)c1c(C(F)(F)F)nc(-c2cccnc2)n1Cc1cc(Cl)ccc1Cl", "note": "[Compound A19, 1-(2,5-dichlorobenzyl)-2-(pyridin-3-yl)-4-(trifluoromethyl)-1H-imidazole-5-carboxylic acid]", "values": [
      {"measurement": "Inhibitory Activity (IC50 of uric acid transport inhibition)", "setting": "[1]", "value": "* * *"},
      {"measurement": "uricosuric effect (uric acid excretion rate)", "setting": "[2]", "value": "excellent uricosuric effect was confirmed"}
    ]}
  ]
}
